System in one test: not listed separately
As to the kind of experiment: Inhibition of HCV NS3 protease. Details: species or system Hepacivirus hominis.
Conditions: not given
One may read the IC50 as the concentration at which inhibition is half-maximal. Regarding `C=C[C@@H]1C[C@]1(NC(=O)[C@@H]1C[C@@H](n2cc(-c3ccc4c(c3)CCO4)nn2)CN1C(=O)[C@@H](NC(=O)OC1CCCC1)C(C)(C)C)C(=O)NS(=O)(=O)C1CC1`, the IC50 is below 3 nM.

For `C=C[C@@H]1C[C@]1(NC(=O)[C@@H]1C[C@@H](n2cc(-c3ccccc3Cl)nn2)CN1C(=O)[C@@H](NC(=O)OC1CCCC1)C(C)(C)C)C(=O)NS(=O)(=O)C1CC1`, the IC50 is below 3 nM.

In the case of `C=C[C@@H]1C[C@]1(NC(=O)[C@@H]1C[C@@H](n2ccnn2)CN1C(=O)[C@@H](NC(=O)OC1CCCC1)C(C)(C)C)C(=O)O`, 59000 nM corresponded to half-maximal inhibition (IC50).

For the molecule `C=C[C@@H]1C[C@]1(NC(=O)[C@@H]1C[C@@H](n2cc(-c3cccc(Br)c3)nn2)CN1C(=O)[C@@H](NC(=O)OC1CCCC1)C(C)(C)C)C(=O)NS(=O)(=O)C1CC1`, the IC50 is below 3 nM.

`C=C[C@@H]1C[C@]1(NC(=O)[C@@H]1C[C@@H](n2cc(-c3ccc4c(c3)CCO4)nn2)CN1C(=O)[C@@H](NC(=O)OC1CCCC1)C(C)(C)C)C(=O)O` yielded an IC50 of 130 nM.

For `C=C[C@@H]1C[C@]1(NC(=O)[C@@H]1C[C@@H](n2cc(-c3ccc(-c4ccccc4)cc3)nn2)CN1C(=O)[C@@H](NC(=O)OC1CCCC1)C(C)(C)C)C(=O)O`, the IC50 worked out at 860 nM.

Turning to `C=C[C@@H]1C[C@]1(NC(=O)[C@@H]1C[C@@H](n2cc(-c3ccc(S(C)(=O)=O)cc3)nn2)CN1C(=O)[C@@H](NC(=O)OC1CCCC1)C(C)(C)C)C(=O)NS(=O)(=O)C1CC1`, the IC50 is below 3 nM.

As for `C=C[C@@H]1C[C@]1(NC(=O)[C@@H]1C[C@@H](n2cc(-c3cc(Br)cc(Br)c3)nn2)CN1C(=O)[C@@H](NC(=O)OC1CCCC1)C(C)(C)C)C(=O)NS(=O)(=O)C1CC1`, the IC50 was below 3 nM.

Take `C=C[C@@H]1C[C@]1(NC(=O)[C@@H]1C[C@@H](n2cc(-c3ccccc3)nn2)CN1C(=O)[C@@H](NC(=O)OC1CCCC1)C(C)(C)C)C(=O)NS(=O)(=O)C1CC1`: half-maximal inhibition (IC50) was put at 2.7 nM.

As for `C=C[C@@H]1C[C@]1(NC(=O)[C@@H]1C[C@@H](n2cc(-c3cccc4ccccc34)nn2)CN1C(=O)[C@@H](NC(=O)OC1CCCC1)C(C)(C)C)C(=O)O`, the IC50 was 890 nM.

The molecule `C=C[C@@H]1C[C@]1(NC(=O)[C@@H]1C[C@@H](n2cc(-c3ccc4c(c3)OCO4)nn2)CN1C(=O)[C@@H](NC(=O)OC1CCCC1)C(C)(C)C)C(=O)NS(=O)(=O)C1CC1` yielded an IC50 below 3 nM.

As for `C=C[C@@H]1C[C@]1(NC(=O)[C@@H]1C[C@@H](n2cc(-c3ccc(OC)cc3)nn2)CN1C(=O)[C@@H](NC(=O)OC1CCCC1)C(C)(C)C)C(=O)O`, inhibition was half-maximal at 360 nM (IC50).

As to `C=C[C@@H]1C[C@]1(NC(=O)[C@@H]1C[C@@H](n2cc(-c3cccc(Cl)c3)nn2)CN1C(=O)[C@@H](NC(=O)OC1CCCC1)C(C)(C)C)C(=O)NS(=O)(=O)C1CC1`, the IC50 was below 3 nM.

As to `C=C[C@@H]1C[C@]1(NC(=O)[C@@H]1C[C@@H](n2cc(-c3ccc(Cl)cc3)nn2)CN1C(=O)[C@@H](NC(=O)OC1CCCC1)C(C)(C)C)C(=O)NS(=O)(=O)C1CC1`, the IC50 is below 3 nM.

For the molecule `C=C[C@@H]1C[C@]1(NC(=O)[C@@H]1C[C@@H](Oc2cc(-c3ccccc3)nc3cc(OC)ccc23)CN1C(=O)[C@@H](NC(=O)OC1CCCC1)C(C)(C)C)C(=O)O`, the IC50 stood at 14 nM.

`C=C[C@@H]1C[C@]1(NC(=O)[C@@H]1C[C@@H](n2cc(-c3ccc(N(C)C)cc3)nn2)CN1C(=O)[C@@H](NC(=O)OC1CCCC1)C(C)(C)C)C(=O)NS(=O)(=O)C1CC1`: the IC50 is below 3 nM.

As to `C=C[C@@H]1C[C@]1(NC(=O)[C@@H]1C[C@@H](n2cc(-c3ccccn3)nn2)CN1C(=O)[C@@H](NC(=O)OC1CCCC1)C(C)(C)C)C(=O)O`, half-maximal inhibition (IC50) required 3700 nM.

Regarding `C=C[C@@H]1C[C@]1(NC(=O)[C@@H]1C[C@@H](n2cc(-c3ccc(Cl)cc3)nn2)CN1C(=O)[C@@H](NC(=O)OC1CCCC1)C(C)(C)C)C(=O)O`, the IC50 was 790 nM.

`C=C[C@@H]1C[C@]1(NC(=O)[C@@H]1C[C@@H](n2cc(C3CCCCC3)nn2)CN1C(=O)[C@@H](NC(=O)OC1CCCC1)C(C)(C)C)C(=O)O` gave an IC50 of 4300 nM.

Molecule `C=C[C@@H]1C[C@]1(NC(=O)[C@@H]1C[C@@H](n2cc(-c3ccsc3)nn2)CN1C(=O)[C@@H](NC(=O)OC1CCCC1)C(C)(C)C)C(=O)NS(=O)(=O)C1CC1` registered an IC50 below 3 nM.

The molecule `C=C[C@@H]1C[C@]1(NC(=O)[C@@H]1C[C@@H](n2nncc2-c2ccccc2)CN1C(=O)[C@@H](NC(=O)OC1CCCC1)C(C)(C)C)C(=O)O` returned a 50% inhibitory concentration (IC50) of 14000 nM.

Molecule `C=C[C@@H]1C[C@]1(NC(=O)[C@@H]1C[C@@H](n2cc(-c3cc(Cl)cc(Cl)c3)nn2)CN1C(=O)[C@@H](NC(=O)OC1CCCC1)C(C)(C)C)C(=O)NS(=O)(=O)C1CC1` displayed an IC50 below 3 nM.

Molecule `C=C[C@@H]1C[C@]1(NC(=O)[C@@H]1C[C@@H](n2cc(-c3ccccc3)nn2)CN1C(=O)[C@@H](NC(=O)OC1CCCC1)C(C)(C)C)C(=O)O` displayed an IC50 of 700 nM.

Another test concerns Hepatitis C virus. In words: Antiviral activity against HCV in human Huh7 cells after 72 hrs by cell based luciferase reporter assay. Conditions: Huh-7, 72 h. The test is classed as functional, organism-based, Hepacivirus hominis. (In general: A reporter such as luciferase makes a cellular process visible.)
Usually EC50 stands for the midpoint of the concentration-response curve. In the case of `C=C[C@@H]1C[C@]1(NC(=O)[C@@H]1C[C@@H](n2cc(-c3ccc4c(c3)CCO4)nn2)CN1C(=O)[C@@H](NC(=O)OC1CCCC1)C(C)(C)C)C(=O)NS(=O)(=O)C1CC1`, the response was half-maximal at 230 nM (EC50).

`C=C[C@@H]1C[C@]1(NC(=O)[C@@H]1C[C@@H](n2cc(-c3ccccc3Cl)nn2)CN1C(=O)[C@@H](NC(=O)OC1CCCC1)C(C)(C)C)C(=O)NS(=O)(=O)C1CC1` came in with an EC50 of 220 nM.

For `C=C[C@@H]1C[C@]1(NC(=O)[C@@H]1C[C@@H](n2cc(-c3cccc(Br)c3)nn2)CN1C(=O)[C@@H](NC(=O)OC1CCCC1)C(C)(C)C)C(=O)NS(=O)(=O)C1CC1`, the EC50 is 210 nM.

In turn, `C=C[C@@H]1C[C@]1(NC(=O)[C@@H]1C[C@@H](n2cc(-c3cc(Br)cc(Br)c3)nn2)CN1C(=O)[C@@H](NC(=O)OC1CCCC1)C(C)(C)C)C(=O)NS(=O)(=O)C1(C)CC1` yielded a concentration for a half-maximal effect (EC50) of 77 nM.

Regarding `C=C[C@@H]1C[C@]1(NC(=O)[C@@H]1C[C@@H](n2cc(-c3ccc(S(C)(=O)=O)cc3)nn2)CN1C(=O)[C@@H](NC(=O)OC1CCCC1)C(C)(C)C)C(=O)NS(=O)(=O)C1CC1`, the EC50 was above 7300 nM.

For `C=C[C@@H]1C[C@]1(NC(=O)[C@@H]1C[C@@H](n2cc(-c3cc(Br)cc(Br)c3)nn2)CN1C(=O)[C@@H](NC(=O)OC1CCCC1)C(C)(C)C)C(=O)NS(=O)(=O)C1CC1`, it took 150 nM to reach a half-maximal effect (EC50).

On to `C=C[C@@H]1C[C@]1(NC(=O)[C@@H]1C[C@@H](n2cc(-c3ccccc3)nn2)CN1C(=O)[C@@H](NC(=O)OC1CCCC1)C(C)(C)C)C(=O)NS(=O)(=O)C1CC1`, for which the EC50 was 430 nM.

In the case of `C=C[C@@H]1C[C@]1(NC(=O)[C@@H]1C[C@@H](n2cc(-c3ccc4c(c3)OCO4)nn2)CN1C(=O)[C@@H](NC(=O)OC1CCCC1)C(C)(C)C)C(=O)NS(=O)(=O)C1CC1`, a half-maximal effect (EC50) was put at 190 nM.

`C=C[C@@H]1C[C@]1(NC(=O)[C@@H]1C[C@@H](n2cc(-c3cc(Br)cc(Br)c3)nn2)CN1C(=O)[C@@H](NC(=O)NC1CCCC1)C(C)(C)C)C(=O)NS(=O)(=O)C1CC1` yielded an EC50 of 105 nM.

The molecule `C=C[C@@H]1C[C@]1(NC(=O)[C@@H]1C[C@@H](n2cc(-c3cccc(Cl)c3)nn2)CN1C(=O)[C@@H](NC(=O)OC1CCCC1)C(C)(C)C)C(=O)NS(=O)(=O)C1CC1` displayed an EC50 of 170 nM.

On to `C=C[C@@H]1C[C@]1(NC(=O)[C@@H]1C[C@@H](n2cc(-c3ccc(Cl)cc3)nn2)CN1C(=O)[C@@H](NC(=O)OC1CCCC1)C(C)(C)C)C(=O)NS(=O)(=O)C1CC1`, for which the EC50 worked out at 680 nM.

`C=C[C@@H]1C[C@]1(NC(=O)[C@@H]1C[C@@H](Oc2cc(-c3ccccc3)nc3cc(OC)ccc23)CN1C(=O)[C@@H](NC(=O)OC1CCCC1)C(C)(C)C)C(=O)O` gave an EC50 of 550 nM.

The molecule `C=C[C@@H]1C[C@]1(NC(=O)[C@@H]1C[C@@H](n2cc(-c3ccc(N(C)C)cc3)nn2)CN1C(=O)[C@@H](NC(=O)OC1CCCC1)C(C)(C)C)C(=O)NS(=O)(=O)C1CC1` gave an EC50 of 270 nM.

In the case of `C=C[C@@H]1C[C@]1(NC(=O)[C@@H]1C[C@@H](n2cc(-c3ccsc3)nn2)CN1C(=O)[C@@H](NC(=O)OC1CCCC1)C(C)(C)C)C(=O)NS(=O)(=O)C1CC1`, the EC50 turned out to be 1220 nM.

Regarding `C=C[C@@H]1C[C@]1(NC(=O)[C@@H]1C[C@@H](n2cc(-c3cc(Cl)cc(Cl)c3)nn2)CN1C(=O)[C@@H](NC(=O)OC1CCCC1)C(C)(C)C)C(=O)NS(=O)(=O)C1CC1`, a half-maximal response (EC50) required 140 nM.

These data come from ChEMBL document CHEMBL1143083, “Potent triazolyl-proline-based inhibitors of HCV NS3 protease” (Bioorg Med Chem Lett, 2008).
